{
  "source": "ChEMBL document CHEMBL1144132",
  "about": "“Dihydrochalcones and flavonolignans from Iryanthera lancifolia” (J Nat Prod, 1999)",
  "data": [
    {"assay": "Antioxidant activity in brain homogenate assessed as drug level require to inhibit 50% of spontaneous lipid peroxidation relative to control", "format": "functional, tissue-based", "units": {"Activity": "µg/mL"}, "values": [
      {"smiles": "COc1ccc(CCC(=O)c2c(OC)cc(O)c([C@@H](c3ccc(O)cc3)[C@@H](C)[C@H](C)Cc3ccc(O)cc3)c2O)cc1", "note": "(relative stereo)", "Activity": 5.5},
      {"smiles": "Cc1c(C)c2c(c(C)c1O)CC[C@@](C)(CCC[C@H](C)CCC[C@H](C)CCCC(C)C)O2", "Activity": 12.1},
      {"smiles": "COc1ccc(CCC(=O)c2c(OC)cc(O)c([C@H](c3ccc(O)cc3)[C@@H](C)[C@H](C)Cc3ccc(O)cc3)c2O)cc1", "note": "(relative stereo)", "Activity": 4.8},
      {"smiles": "COc1ccc(CCC(=O)c2c(O)cc(O)cc2OC)cc1", "Activity": 6.9},
      {"smiles": "COc1cc(O)c(C(=O)CCc2ccc(O)cc2)c(OC)c1", "Activity": 4.7},
      {"smiles": "O=c1c(O)c(-c2ccc(O)c(O)c2)oc2cc(O)cc(O)c12", "Activity": 7.6}
    ]}
  ]
}
